Experimental data: patent publication US5961482A, “Iontotherapeutic device and process and iontotherapeutic unit dose” (Rutgers, The State University Of New Jersey, priority 1996, dated 1999)
Counter-ions that a name gives are not always drawn. Like-named read-outs stand apart in the source and are kept apart here.

Columns and labels:
[1] = for Cumulative Amount of Drug Absorbed: donor 6.2 mg/ml pH 9.0, 37° C.
[2] = In vitro skin permeation of insulin, Valia-Chien cell, I^125-insulin scintillation counting; type: in vitro ADME, hairless rat; conditions: for Skin Permeation Rate: 5.3 IU/ml, pH 7.1
Procedure: (§1) An aqueous solution of insulin (5.3 IU/ml containing 0.3 mcCi of I^125 -insulin) is prepared and adjusted to pH 7.1 using NaOH. An aliquot of 3.5 ml of this insulin solution is filled into the refillable dosage unit having a microporous membrane as the drug-releasing surface. The dosage unit is then assembled as a part of the pharmaceutical reservoir electrode of the iontotherapeutic device and membrane surface thereof is applied to the stratum corneum side of hairless rat skin mounted in the Valia-Chien skin permeation cell at 37° C. Samples are withdrawn at regular time intervals and radioactivity is measured by scintillation counter to determine the amount of insulin which has been transdermally absorbed.
as §1, with “pH 3.7, 5.2 or” for “pH”, “either HCl or NaOH solution.” for “NaOH.”, “radio-activity” for “radioactivity”

[3] = test system: blood glucose level (B.G.L.) in the diabetic hairless rats; experiment: Reduction in blood glucose level in diabetic hairless rats; type: in vivo
Procedure: An aqueous solution of insulin at a concentration of 250 IU/ml is prepared by dissolving 193.8 mg (25.8 IU/mg) of pure porcine insulin in 20 ml of citrate buffer at pH 3.6. Two ml of the insulin solution so prepared is filled into a refillable dosage unit having a microporous membrane as the drug-releasing surface. This insulin-containing reservoir-type dosage unit is then assembled as a part of the pharmaceutical reservoir electrode of the iontotherapeutic device and applied successively on the abdominal skin of 9 diabetic hairless rats with the transdermal periodic iontotherapeutic system operating at 1 mA with square waveform mode to study the effect of frequency, on/off ratio and treatment duration on the reduction of blood glucose level. The results are shown and compared, respectively, in FIGS. 16, 17 and 18.
The same insulin solution is prepared in the same way as in Example 1, except that a phosphate buffer at pH 7.1 is used to replace the double-distilled water. Two ml of the insulin solution so prepared is filled into a refillable dosage unit having a microporous membrane as the drug-releasing surface. This unit dose is applied to 3 diabetic hairless rats following the same operation procedures as in Example 3 to study the effect of treatment duration on the reduction of blood glucose level.
(§2) An aqueous buffer solution of insulin (250 IU/ml) is prepared in citrate-phosphate buffer at pH 3.68. An aliquot of 2.5 ml of this insulin solution is filled into the refillable dosage unit having a microporous membrane as the drug-releasing surface. The dosage unit is then assembled as a part of the pharmaceutical reservoir electrode of the iontotherapeutic device and membrane surface thereof is applied to the skin at abdominal region of 3 groups of anaesthetized, diabetic hairless rats. Blood samples are withdrawn at regular time intervals and glucose levels are measured by glucose analyzer. The reduction in glucose level from hyperglycemic state is the pharmacodynamic responses to the insulin absorbed transdermally.
as §2, with “5” for “3 groups of”

[4] = Plasma immunoreactive insulin concentration in diabetic rabbits by radioimmunoassay; type: in vivo; conditions: TPIS 1 mA, 500 IU/ml pH 7.10
Procedure: (§3) An aqueous solution of insulin (500 IU/ml) at pH 7.10 is used. An aliquot of 2.5 ml of this insulin solution is filled into the refillable dosage unit having a microporous membrane as the drug-releasing surface. The dosage unit is then assembled as a part of the pharmaceutical reservoir electrode of the iontotherapeutic device and membrane surface thereof is applied to the skin at dorsal region of 3 diabetic rabbits. Blood samples are withdrawn at regular time intervals and analyzed for immunoreactive insulin concentration by radioimmunoassay and for glucose levels by glucose analyzer. The reduction in glucose level from hyperglycemic state is the pharmacodynamic responses to the insulin transdermally absorbed.
An aqueous solution of insulin (500 IU/ml) at pH 7.10 is used. An aliquot of 2.5 ml of this insulin solution is filled into the refillable dosage unit having a microporous membrane as the drug-releasing surface. The dosage unit is then assembled as a part of the pharmaceutical reservoir electrode of the iontotherapeutic device and membrane surface thereof is applied to the abdominal skin of 2 groups of diabetic rabbits. Blood samples are withdrawn at regular time intervals and analyzed for immunoreactive insulin concentration by radioimmunoassay and for glucose levels by glucose analyzer. […]

[5] = test system: blood glucose level (B.G.L.) in diabetic rabbits; experiment: Reduction of blood glucose levels in diabetic rabbits by glucose analyzer; type: in vivo
Procedure: as §3
An aqueous solution of insulin (500 IU/ml) at pH 7.10 is used. An aliquot of 2.5 ml of this insulin solution is filled into the refillable dosage unit having a microporous membrane as the drug-releasing surface. The dosage unit is then assembled as a part of the pharmaceutical reservoir electrode of the iontotherapeutic device and membrane surface thereof is applied to the abdominal skin of 2 groups of diabetic rabbits. Blood samples are withdrawn at regular time intervals and analyzed for immunoreactive insulin concentration by radioimmunoassay and for glucose levels by glucose analyzer. The reduction in glucose level from hyperglycemic state is the pharmacodynamic responses to the insulin transdermally absorbed.

[6] = for Tlag: printed beside pH 4.0 value

CN(C)[C@@H]1C(=O)C(C(N)=O)=C(O)[C@@]2(O)C(=O)C3=C(O)c4c(O)cccc4[C@@](C)(O)[C@H]3C[C@@H]12 [Tetracycline HCl, tetracycline HCl]
Cumulative Amount of Drug Absorbed ([1]; No TPIS, 1.25 hrs): 0.0180 mcg/cm^2 | Cumulative Amount of Drug Absorbed ([1]; No TPIS, 2.25 hrs): 0.0550 mcg/cm^2 | Cumulative Amount of Drug Absorbed ([1]; No TPIS, 3.25 hrs): 0.0650 mcg/cm^2 | Cumulative Amount of Drug Absorbed ([1]; No TPIS, 4.25 hrs): 0.1450 mcg/cm^2 | Cumulative Amount of Drug Absorbed ([1]; No TPIS, 5.25 hrs): 0.3040 mcg/cm^2 | Cumulative Amount of Drug Absorbed ([1]; With TPIS (1 mA, 10 min/hr, 2000 Hz, square, on/off 4/1), 1.25 hrs): 0.1765 mcg/cm^2 | Cumulative Amount of Drug Absorbed ([1]; With TPIS (1 mA, 10 min/hr, 2000 Hz, square, on/off 4/1), 2.25 hrs): 0.2555 mcg/cm^2 | Cumulative Amount of Drug Absorbed ([1]; With TPIS (1 mA, 10 min/hr, 2000 Hz, square, on/off 4/1), 3.25 hrs): 0.7815 mcg/cm^2 | Cumulative Amount of Drug Absorbed ([1]; With TPIS (1 mA, 10 min/hr, 2000 Hz, square, on/off 4/1), 4.25 hrs): 1.3235 mcg/cm^2 | Cumulative Amount of Drug Absorbed ([1]; With TPIS (1 mA, 10 min/hr, 2000 Hz, square, on/off 4/1), 5.25 hrs): 3.5600 mcg/cm^2

COc1ccc2c(c1)c(CC(=O)O)c(C)n2C(=O)c1ccc(Cl)cc1 [Indomethacin, indomethacin]
Skin Permeation Rate ([1]; No TPIS, pH 5.5): 1.47 mcg/cm^2 /hr | Skin Permeation Rate ([1]; With TPIS (1.2 mA, 5 min/hr for 7 hours, 2000 Hz, square, on/off 2/1), pH 2.5): 0.76 mcg/cm^2 /hr | Skin Permeation Rate ([1]; With TPIS (1.2 mA, 5 min/hr for 7 hours, 2000 Hz, square, on/off 2/1), pH 4.5): 0.44 mcg/cm^2 /hr | Skin Permeation Rate ([1]; With TPIS (1.2 mA, 5 min/hr for 7 hours, 2000 Hz, square, on/off 2/1), pH 5.5): 6.30 mcg/cm^2 /hr

insulin
Skin Permeation Rate ([2]; TIDD 1 mA, 0 Hz, 5 min per 60 min for 7 hrs): 37.5 (±4.5) mcIU/cm^2 /hr | increase in TPIS-facilitated skin permeability, pH dependence ([2]; lower pH solution (pH 3.7) vs pH 5.2 and 7.1): greater increase | Skin Permeation Rate ([2]; no iontotherapy, 48 hours): 3.94±0.29 mcIU/cm^2 /hr | blood glucose levels ([3]; TPIS 1 mA, 2 KHz, on/off 1/1, 40 min, 250 IU/ml pH 3.68, waveforms compared): reduced substantially | blood glucose levels, Day 1 ([3]; TPIS 1 mA, 2 KHz, square, on/off 1/1, 40 min, 250 IU/ml pH 3.68, Day 1): reduced substantially | reduction of blood glucose level, effect of treatment duration ([3]; TPIS 1 mA, on/off 1/1, 1000 Hz, pH 7.1): difference in the rate and the duration, but with equal effectiveness | reduction of blood glucose level, effect of treatment duration 20-40 minutes ([3]; TPIS 1 mA, on/off 8/1, 2000 Hz, pH 3.6): equally effective | reduction of blood glucose level, 2000 Hz vs 1000 Hz ([3]; TPIS 1 mA, square waveform, frequency of 2000 Hz vs 1000 Hz, pH 3.6): greater magnitude and a longer duration of reduction | blood glucose, Day 3 ([3]; TPIS on Day 3 with no insulin in electrode, after insulin delivered on Day 1 (skin depot)): also reduced | plasma immunoreactive insulin concentration ([4]; 2 KHz, on/off 1/1, square, 40 min, dorsal skin): increases rapidly | plasma immunoreactive insulin concentration, TPIS vs TIDD ([4]; 40 min vs TIDD 4 mA, 80 min, abdominal skin): increases more rapidly | reduction of blood glucose level by TIDD ([5]; TIDD (4× current, 2× administration time), pH 7.10): lower than the normoglycemic level | blood glucose levels ([5]; TPIS 1 mA, 2 KHz, on/off 1/1, square, 40 min, 500 IU/ml pH 7.10, dorsal skin): reduced substantially | blood glucose levels, TPIS vs TIDD ([5]; TPIS 1 mA, 40 min vs TIDD 4 mA, 80 min, 500 IU/ml pH 7.10, abdominal skin): reduced more instantaneously | reduction of blood glucose level by TPIS ([5]; TPIS, from hyperglycemic level, pH 7.10): near instantaneous reduction | blood glucose level control by TPIS vs SC ([5]; TPIS, pH 7.1, compared with subcutaneous administration): controlled at a highly constant level

COc1ccc2c3c1O[C@H]1C(=O)CC[C@H]4[C@@H](C2)N(C)CC[C@]314 [Hydrocodone, hydrocodone]
Skin Permeation Rate ([6]; Control, pH 4.0): 3.10 mcg/cm^2 /hr | Skin Permeation Rate ([6]; Control, pH 7.5, ± S.D.): 4.75 ± 1.70 mcg/cm^2 /hr | Tlag ([6]; Control): 5.17 h | Skin Permeation Rate ([6]; DC mode, 1 mA, 2 min hourly for 12 hours, pH 4.0): 37.5 mcg/cm^2 /hr | Skin Permeation Rate ([6]; DC mode, 1 mA, 2 min hourly for 12 hours, pH 7.5, ± S.D.): 7.61 ± 2.74 mcg/cm^2 /hr | Tlag ([6]; DC mode, 1 mA, 2 min hourly): 0.72 h | Tlag ([6]; periodic wave mode, 2000 Hz, on/off 1/1, 1 mA): 0.90 h | Skin Permeation Rate ([6]; periodic wave mode, square wave, 2000 Hz, on/off 1/1, 1 mA, 2 min hourly, pH 4.0): 59.4 mcg/cm^2 /hr | Skin Permeation Rate ([6]; periodic wave mode, square wave, 2000 Hz, on/off 1/1, 1 mA, 2 min hourly, pH 7.5, ± S.D.): 7.01 ± 1.16 mcg/cm^2 /hr
